According to patent US20060223792A1, “Phenyl and pyridyl LTA4H modulators” (priority 2005, published 2006):
Read-outs that look alike come from different tables or passages of the source.

Legend:
[1] = tested on: LTB4 production by calcium ionophore-stimulated murine blood; assay: LTB4 production by calcium ionophore-stimulated murine blood for LTA4H inhibitor activity; format: cell-based, CD-1 mice; details: diluted CD-1 mouse whole blood, calcium ionophore A23187, LTB4 by enzyme-linked immunoassay
Experimental: LTB4 Production by Calcium Ionophore-Stimulated Murine Blood for LTA4H Inhibitor Activity
CD-1 mice were sacrificed, and blood was collected in heparin-containing syringes by cardiac puncture. The blood was diluted 1:15 with RPMI-1640 medium, and 200-μL aliquots of the diluted blood were added to wells of a 96-well microtiter plate. LTA4H inhibitor test compounds were prepared at different concentrations in RPMI-1640 medium containing […], and 20 μL of each test solution was added to a well containing diluted whole blood (final DMSO concentration of 0.1%). After the microtiter plate contents were incubated for 15 min at 37° C. in a humidified incubator, calcium ionophore A23187 (Sigma Chemical Co., St. Louis, Mo.) was added to each sample well (final concentration=20 ng/mL). The incubation was continued under the same conditions for an additional 10 min to allow LTB4 formation. The reaction was terminated by centrifugation (833×g, 10 min at 4° C.), and supernatants were analyzed for LTB4 by a commercially available enzyme-linked immunoassay (Cayman Chemical Co.) according to the manufacturer's instructions. Positive controls, under essentially identical conditions but without addition of an inhibitor compound, and negative unstimulated controls, containing all assay components except calcium ionophore, were routinely run in each experiment. IC50 values were determined by fitting the activity data at different compound concentrations to a 4-parameter equation using the Grafit program (Erithacus software).

[2] = tested on: ex vivo stimulated LTB4 production; assay: Murine arachidonic acid-induced inflammation model: ex vivo stimulated LTB4 production in blood; details: Mus musculus; 30 mg/kg oral gavage, female Balb/c mice; blood taken 3 h after arachidonic acid, stimulated ex vivo with A23187; read-out: % Inh. LTB4
Experimental: (§1) Murine Arachidonic Acid-Induced Inflammation Model
(§2) LTA4H inhibitor compounds of the present invention were dissolved in 20% cyclodextran/H2O at a concentration of 3 mg/mL. The solutions were administered by oral gavage to female Balb/c mice weighing approximately 20 grams each (0.2 mL per mouse, 30 mg of LTA4H inhibitor compound per kg). Sixty minutes after being administered an LTA4 inhibitor, each mouse received topical application of 20 μL of arachidonic acid (100 mg/mL in acetone) to the left ear and 20 μL of acetone only to the right ear. After 3 h, the mice were sacrificed, blood was withdrawn in heparinized syringes, and 8 mm ear biopsies were taken. Ear biopsies were weighed to determine edema and then frozen at −80° C. until needed for determination of neutrophil influx.
One hundred-microliter aliquots of heparinized blood were added to wells of a microtiter plate, along with equal volumes of RPMI-1640 medium, and calcium ionophore A23187 was added to each sample well (final concentration=[…]). The microtiter plate contents were incubated for 10 min at 37° C. in a humidified incubator. The reaction was terminated by centrifugation (833×g, 10 min at 4° C.). Supernatants were analyzed for LTB4 by a commercially available enzyme-linked immunoassay (Cayman Chemical Co.) in accordance with the manufacturer's instructions. The percent inhibition of ex vivo stimulated LTB4 production (% Inh. LTB4) was determined by comparison to animals treated identically except that the solution admininstered by oral gavage was devoid of inhibitor compound.

[3] = tested on: neutrophil influx (myeloperoxidase, MPO); assay: Murine arachidonic acid-induced inflammation model: neutrophil influx in ear (myeloperoxidase activity); format: in vivo, female Balb/c mice; details: Mus musculus, read-out: % Inh. MPO
Experimental: as §1, §2
Neutrophil influx was quantified by measuring the activity of myeloperoxidase (MPO), a neutrophil-specific enzyme. The ear biopsies were homogenized in 0.5 mL extraction buffer (0.3 M sucrose, 0.22% (w/v) hexadecyl trimethyl ammonium bromide (CTAB), and 2.5 mM citrate prepared from 0.5 M citrate stock solution (pH 5.0)). Debris was removed by centrifugation at 14000×g for 10 min. Aliquots of 10 μL of the resulting supernatant were added to wells of a microtiter plate, along with 90-μL aliquots of dilution buffer (10 mM citrate, 0.22% CTAB), followed by addition of 20 μL TMB liquid substrate system (Sigma Chemical Co.) to each sample well. The microtiter plate contents were held at rt for 1 h. The reaction was stopped by addition of 100 μL 1 M H2SO4 to each sample well, and the myeloperoxidase activity in each sample was determined from the absorbance at 405 nm. The background value from the right ear, treated only with acetone, was subtracted from that for the left ear, treated with arachidonic acid in acetone, for each animal. The percent inhibition of neutrophil influx (% lnh. MPO) by compounds of the invention was determined by comparison to animals treated identically, except that the solution administered by oral gavage was devoid of inhibitor compound.

[4] = 30 mg/kg oral gavage 60 min before topical arachidonic acid to ear, female Balb/c mice, ear biopsies after 3 h

IC50 [1] [nM] | SMILES | inhibition at 30 mg/kg [2] [%] | inhibition in vivo at 30 mg/kg ([3]; po, 3 h) [%] | inhibition in vivo at 30 mg/kg [3, 4] [%]
181 | O=C(O)C1CCN(CCc2ccc(OCCc3ccccc3)cc2)CC1 [Example 81, 1-[2-(4-Phenethyloxy-phenyl)-ethyl]-piperidine-4-carboxylic acid] | 78 | – | 64
7 | O=C(O)C1CCN(Cc2ccc(OCCc3ccccc3)cc2)CC1 [Example 96, 1-(4-Phenethyloxy-benzyl)-piperidine-4-carboxylic acid] | 80 | – | 95
10 | O=C(O)C1CCN(Cc2ccc(OCCCc3ccccc3)cc2)CC1 [Example 112, 1-[4-(3-Phenyl-propoxy)-benzyl]-piperidine-4-carboxylic acid] | 91 | – | 79
79 | O=C(O)C1CCN(CCOc2ccc(OCCCc3ccccc3)cc2)CC1 [Example 117, 1-{2-[4-(3-Phenyl-propoxy)-phenoxy]-ethyl}-piperidine-4-carboxylic acid] | 74 | – | 62

Second part, the molecule before the results:

SMILES | IC50 [1] [nM] | inhibition at 30 mg/kg [2] [%] | inhibition in vivo at 30 mg/kg ([3]; po, 3 h) [%] | inhibition in vivo at 30 mg/kg [3, 4] [%]
CN(C(=O)Oc1ccc(OCCN2CCC(O)(c3ccccc3)CC2)cc1)c1ccccc1 [Example 40, Methyl-phenyl-carbamic acid 4-[2-(4-hydroxy-4-phenyl-piperidin-1-yl)-ethoxy]-phenyl ester] | 150 | 79 | 75 | –
O=C1CCCN1C1CCN(Cc2ccc(OCCc3ccccc3)cc2)CC1 [Example 99, 1-[1-(4-Phenethyloxy-benzyl)-piperidin-4-yl]-pyrrolidin-2-one] | 123 | 68 | – | 17
